Data taken from patent publication US20240398825A1 (NANJING DELOVA BIOTECH CO. LTD., priority 2018, published 2024).
Values after ≈ are worked out from the molar mass of the structure shown.

What was measured:
[1] = Solubility of meloxicam in organic base or alkaline amino acid solutions (Comparative Example A4); format: physicochemical; conditions: for solubility at 24 h: 25 °C, shaking at 25° C. for 24 h, n = 3
[2] = Solubility study of meloxicam in injectable solution; format: physicochemical; conditions: aqueous with cosolvent or surfactant or cyclodextrin; PEG 400 300 mg/mL, pH 7.7-8.0 (NaOH/citric acid)
[3] = Solubility of meloxicam in PEG 200, PEG300 or PEG600; format: physicochemical; conditions: 25 °C, organic solvent or mixture, thermodynamic from solid, read-out: Solubility (shaking at 25° C. for 24 h)
[4] = cited from earlier work
[5] = cited from earlier work; remark: listed apart in the source
[6] = physchem; conditions: 25 °C, water, thermodynamic from solid

Compound: Cc1cnc(NC(=O)C2=C(O)c3ccccc3S(=O)(=O)N2C)s1 [Meloxicam, 4-hydroxy-2-methyl-N-(5-methyl-2-thiazolyl)-2H-1,2-benzothiazine-3-carboxamide-1,1-dioxide]
- solubility at 24 h ([1]; Tris solution, aqueous buffer, thermodynamic from solid, Tris 5 mg/mL): 5.54 mg/mL (≈ 15.8 mM)
- solubility at 24 h ([1]; Tris solution, aqueous buffer, thermodynamic from solid, Tris 10 mg/mL): 9.07 mg/mL (≈ 25.8 mM)
- solubility at 24 h ([1]; Tris solution, aqueous buffer, thermodynamic from solid, Tris 15 mg/mL): 11.4 mg/mL (≈ 32.4 mM)
- solubility at 24 h ([1]; Tris solution, aqueous buffer, thermodynamic from solid, Tris 20 mg/mL): 14.3 mg/mL (≈ 40.6 mM)
- solubility at 24 h ([1]; Tris solution, aqueous buffer, thermodynamic from solid, Tris 30 mg/mL): 18.3 mg/mL (≈ 52.1 mM)
- stability of the solutions in organic base or basic amino acid ([1]; after standing overnight at room temperature): Crystals were precipitated
- solubility at 24 h ([1]; arginine solution, aqueous buffer, thermodynamic from solid, Arginine 7 mg/mL): 11.2 mg/mL (≈ 32 mM)
- solubility at 24 h ([1]; arginine solution, aqueous buffer, thermodynamic from solid, Arginine 14 mg/mL): 11.6 mg/mL (≈ 32.9 mM)
- solubility at 24 h ([1]; arginine solution, aqueous buffer, thermodynamic from solid, Arginine 20 mg/mL): 11.6 mg/mL (≈ 33 mM)
- solubility at 24 h ([1]; arginine solution, aqueous buffer, thermodynamic from solid, Arginine 30 mg/mL): 12.8 mg/mL (≈ 36.4 mM)
- solubility at 24 h ([1]; arginine solution, aqueous buffer, thermodynamic from solid, Arginine 40 mg/mL): 14.2 mg/mL (≈ 40.5 mM)
- solubility ([1]; high concentration organic base or basic amino acid solution, aqueous buffer, thermodynamic from solid, solubility of meloxicam in a high concentration organic base or basic amino acid, high concentration organic base or basic amino acid): ≥ 10 mg/mL
- solubility at 24 h ([1]; lysine solution, aqueous buffer, thermodynamic from solid, Lysine 6 mg/mL): 10.5 mg/mL (≈ 29.7 mM)
- solubility at 24 h ([1]; lysine solution, aqueous buffer, thermodynamic from solid, Lysine 19 mg/mL): 29.8 mg/mL (≈ 84.7 mM)
- solubility at 24 h ([1]; lysine solution, aqueous buffer, thermodynamic from solid, Lysine 24 mg/mL): 35.9 mg/mL (≈ 102 mM)
- solubility at 24 h ([1]; meglumine solution, aqueous buffer, thermodynamic from solid, Meglumine 5 mg/mL): 8.01 mg/mL (≈ 22.8 mM)
- solubility at 24 h ([1]; meglumine solution, aqueous buffer, thermodynamic from solid, Meglumine 10 mg/mL): 17.8 mg/mL (≈ 50.7 mM)
- solubility at 24 h ([1]; meglumine solution, aqueous buffer, thermodynamic from solid, Meglumine 15 mg/mL): 24.6 mg/mL (≈ 70.1 mM)
- solubility [2]: 60 mg/mL (≈ 171 mM)
- solubility at 24 h ([3]; Cosolvent PEG200): 3.6 mg/mL (≈ 10.2 mM)
- solubility at 24 h ([3]; Cosolvent PEG300): 2.81 mg/mL (≈ 8 mM)
- solubility at 24 h ([3]; Cosolvent PEG600): 3.18 mg/mL (≈ 9.05 mM)
- solubility in water ([4]; 25° C.): 0.003414 mg/mL (≈ 0.00972 mM)
- solubility in chloroform, acetone and ethanol [4]: slightly soluble
- maximum solubility in pure PEG 400 ([5]; Zaira J. Cárdenas et al.): 9.2 mg/mL
- solubility of meloxicam in pure PEG 400 ([5]; found by Neelam Seeder et al.): 3.763 mg/mL
- solubility at 24 h [6]: 0.02 mg/mL (≈ 0.0569 mM)
